{"source": "ChEMBL document CHEMBL1129949", "about": "“Correlation of antimalarial activity of artemisinin derivatives with binding affinity with ferroprotoporphyrin IX” (J Med Chem, 1997)", "data": [{"system": "Plasmodium falciparum", "experiment": "Mean of EC50 values for FM3A cells/ mean of EC50 values for Plasmodium falciparum", "type": "functional, organism-based", "units": {"IC50": "nM"}, "values": [{"smiles": "CC1C(OC(=O)CCC(=O)O)O[C@@H]2O[C@]3(C)CC[C@H]4[C@H](C)CC[C@@H]1[C@@]24OO3", "note": "(some centres undefined)", "IC50": 0.62}, {"smiles": "CC1C(O)O[C@@H]2OC3(C)CC[C@H]4[C@H](C)CC[C@@H]1[C@@]24OO3", "note": "(single isomer, unassigned)", "IC50": 1.1}, {"smiles": "COC1O[C@@H]2OC3(C)CC[C@H]4[C@H](C)CC[C@@H](C1C)[C@@]24OO3", "note": "(single isomer, unassigned)", "IC50": 4.1}, {"smiles": "C[C@@H]1CC[C@H]2C(Cn3ccnc3)C(O)O[C@@H]3OC4(C)CC[C@@H]1[C@]32OO4", "note": "(single isomer, unassigned)", "IC50": 0.39}, {"smiles": "CCOC1O[C@@H]2OC3(C)CC[C@H]4[C@H](C)CC[C@@H](C1C)[C@@]24OO3", "note": "(single isomer, unassigned)", "IC50": 24}, {"smiles": "C[C@@H]1CC[C@H]2C(Cn3ccnc3)C(=O)O[C@@H]3OC4(C)CC[C@@H]1[C@]32OO4", "note": "(single isomer, unassigned)", "IC50": 32}, {"smiles": "C[C@@H]1CC[C@H]2C(CSc3ccccc3)C(=O)O[C@@H]3OC4(C)CC[C@@H]1[C@]32OO4", "note": "(single isomer, unassigned)", "IC50": 20}, {"smiles": "C=C1C(=O)O[C@@H]2OC3(C)CC[C@H]4[C@H](C)CC[C@@H]1[C@@]24OO3", "note": "(single isomer, unassigned)", "IC50": 30}, {"smiles": "C[C@@H]1CC[C@H]2[C@@H](C)C(=O)O[C@@H]3O[C@@]4(C)CC[C@@H]1[C@]32OO4", "note": "[ARTEMISININ]", "IC50": 5}]}]}
